Laboratory results: US20220177477A1 (Central China Normal University, priority 2019, published 2022)

Tests used:
[1] = test system: Human NSCLC H2228; experiment: Antitumor activity on nude mouse xenograft tumor model (Test Example 4); assay type: in vivo, nude mice (BALB/c)
Experimental: The efficacy of the compounds of the invention was evaluated by a standard murine model of the transplanted tumor. Human NSCLC H2228 was cultured, collected, and inoculated subcutaneously to 5-6 weeks old female nude mice (BALB/c, Shanghai Ling Chang Biotech, Ltd.). When the tumor volume reached 100-150 mm^3, the animals were randomly divided into a solvent control group ([…] in water) and a compound group (6 animals per group). Animals were subsequently gavaged with the compounds of the examples (corresponding dose, dissolved in […] in water), starting anywhere from 0 to 7 days after tumor cell inoculation, and were performed twice daily in the experiment.
The experimental index is to examine the influence of the compound of the embodiment on the growth of the tumor, and the specific index is […].
(§1) Tumor diameters were measured twice weekly with a vernier caliper and tumor volume (V) was calculated as:
(§2) V=½×a×b^2 wherein a and b represent length and width, respectively.
(§3) T/C(%)=(T−T0)/(C−C0)×100 where T, C is the tumor volume at the end of the experiment; T0, C0 are tumor volumes at the beginning of the experiment.
(§4) Partial tumor regression (PR) is defined if the tumor shrinks from the initial volume, i.e., T<T0 or C<C0; if the tumor completely disappears, it is defined as complete tumor regression (CR).
(§5) Comparison between the two groups of tumor volumes was tested using a two-tailed Student's t test, with P<0.05 defined as statistically significant differences.
BID below refers to twice daily dosing.

[2] = biological target: T1, TRKC-G696A (Homo sapiens, UniProt Q16288, G696A); experiment: TRK kinase mutant inhibition (HTRF), TRKC-G696A; assay type: biochemical
T1 construct: purchased Carna Biosciences
T1 sequence (Q16288 32-839 G696A): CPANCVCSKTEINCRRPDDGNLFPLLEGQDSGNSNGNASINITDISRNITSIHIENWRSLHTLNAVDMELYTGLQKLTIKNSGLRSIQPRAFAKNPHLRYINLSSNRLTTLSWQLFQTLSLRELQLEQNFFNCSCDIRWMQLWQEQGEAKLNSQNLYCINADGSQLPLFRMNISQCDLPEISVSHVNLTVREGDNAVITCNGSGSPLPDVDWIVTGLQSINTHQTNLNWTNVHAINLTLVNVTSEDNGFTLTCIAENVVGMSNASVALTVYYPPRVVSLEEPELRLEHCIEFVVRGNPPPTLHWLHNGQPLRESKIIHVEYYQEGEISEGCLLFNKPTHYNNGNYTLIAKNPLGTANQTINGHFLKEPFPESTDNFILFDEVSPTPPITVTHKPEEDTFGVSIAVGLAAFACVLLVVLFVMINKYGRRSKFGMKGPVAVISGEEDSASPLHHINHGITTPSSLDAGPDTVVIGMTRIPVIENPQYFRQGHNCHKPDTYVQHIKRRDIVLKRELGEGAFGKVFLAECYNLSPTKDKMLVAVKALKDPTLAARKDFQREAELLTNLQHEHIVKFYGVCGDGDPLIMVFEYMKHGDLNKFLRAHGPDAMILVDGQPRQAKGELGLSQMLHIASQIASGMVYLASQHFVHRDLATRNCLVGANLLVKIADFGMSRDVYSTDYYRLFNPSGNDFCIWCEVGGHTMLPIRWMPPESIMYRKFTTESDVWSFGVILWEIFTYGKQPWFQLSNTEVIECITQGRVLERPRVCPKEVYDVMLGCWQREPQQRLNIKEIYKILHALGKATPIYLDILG

[3] = biological target: T2, TRKC-G623R (Homo sapiens, UniProt Q16288, G623R); experiment: TRK kinase mutant inhibition (HTRF), TRKC-G623R; assay type: biochemical
T2 construct: purchased Carna Biosciences
T2 sequence (Q16288 32-839 G623R): as the sequence (Q16288 32-839 G696A) above, with G592R, A665G counted along it

[4] = Drug metabolism study in rats, intravenous administration; details: rat
[5] = Drug metabolism study in rats, oral administration; details: rat
[6] = biological target: T3, TRKA-F589L (Homo sapiens, UniProt P04629, F589L); experiment: TRK kinase mutant inhibition (HTRF), TRKA-F589L; assay type: biochemical
T3 construct: purchased Carna Biosciences
T3 sequence (P04629 33-796 F589L): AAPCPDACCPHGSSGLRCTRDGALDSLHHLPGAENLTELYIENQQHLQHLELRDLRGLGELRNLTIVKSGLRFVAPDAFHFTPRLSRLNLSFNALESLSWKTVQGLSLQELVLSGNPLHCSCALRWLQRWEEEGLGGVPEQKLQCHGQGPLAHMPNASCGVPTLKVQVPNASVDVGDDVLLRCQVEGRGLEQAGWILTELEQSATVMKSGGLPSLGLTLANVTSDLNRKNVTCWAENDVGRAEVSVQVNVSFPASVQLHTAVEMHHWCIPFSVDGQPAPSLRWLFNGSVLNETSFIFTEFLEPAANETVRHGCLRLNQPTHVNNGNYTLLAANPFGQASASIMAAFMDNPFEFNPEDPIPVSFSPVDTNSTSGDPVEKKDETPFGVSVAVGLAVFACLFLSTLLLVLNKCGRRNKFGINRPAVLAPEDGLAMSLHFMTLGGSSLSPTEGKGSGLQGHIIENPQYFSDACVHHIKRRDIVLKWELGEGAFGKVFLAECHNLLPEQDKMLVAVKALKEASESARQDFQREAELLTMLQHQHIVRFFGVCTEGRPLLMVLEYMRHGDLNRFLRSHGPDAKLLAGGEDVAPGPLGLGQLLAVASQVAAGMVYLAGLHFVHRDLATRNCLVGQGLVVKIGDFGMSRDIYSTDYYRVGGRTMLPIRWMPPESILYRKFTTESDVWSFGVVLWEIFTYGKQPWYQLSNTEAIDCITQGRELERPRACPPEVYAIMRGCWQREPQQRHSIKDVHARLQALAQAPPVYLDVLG

[7] = biological target: T4, TRKA-G667C (Homo sapiens, UniProt P04629, G667C); experiment: TRK kinase mutant inhibition (HTRF), TRKA-G667C; assay type: biochemical
T4 construct: purchased Carna Biosciences
T4 sequence (P04629 33-796 G667C): as the sequence (P04629 33-796 F589L) above, with L557F, G635C counted along it

[8] = biological target: T5, TRKB (Homo sapiens, UniProt Q16620); experiment: In vitro biochemical HTRF KinEASE kinase inhibition, TRKB; details: wild-type kinase, final ATP 2.56 μmol/L
T5 construct: purchased Carna Biosciences 08-187
T5 sequence (Q16620 32-822): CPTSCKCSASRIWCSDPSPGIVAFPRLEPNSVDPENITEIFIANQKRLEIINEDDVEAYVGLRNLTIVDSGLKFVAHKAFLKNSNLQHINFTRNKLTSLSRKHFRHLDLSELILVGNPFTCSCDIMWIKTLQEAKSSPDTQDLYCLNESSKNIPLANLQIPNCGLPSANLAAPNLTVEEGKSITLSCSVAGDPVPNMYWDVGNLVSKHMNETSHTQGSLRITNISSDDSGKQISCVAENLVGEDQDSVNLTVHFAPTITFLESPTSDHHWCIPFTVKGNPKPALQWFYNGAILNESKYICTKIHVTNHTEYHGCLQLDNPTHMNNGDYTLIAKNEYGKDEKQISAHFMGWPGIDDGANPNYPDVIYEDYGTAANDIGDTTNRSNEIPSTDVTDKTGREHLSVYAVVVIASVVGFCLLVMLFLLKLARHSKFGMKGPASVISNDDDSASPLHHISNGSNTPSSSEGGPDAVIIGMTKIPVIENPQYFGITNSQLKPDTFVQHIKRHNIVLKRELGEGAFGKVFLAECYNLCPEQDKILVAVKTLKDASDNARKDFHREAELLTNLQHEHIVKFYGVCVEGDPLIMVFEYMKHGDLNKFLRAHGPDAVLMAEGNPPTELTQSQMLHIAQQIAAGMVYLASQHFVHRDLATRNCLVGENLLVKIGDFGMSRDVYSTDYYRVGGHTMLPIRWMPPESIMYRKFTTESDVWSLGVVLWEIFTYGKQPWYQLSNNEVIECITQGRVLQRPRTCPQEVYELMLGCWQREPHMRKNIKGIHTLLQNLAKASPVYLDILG
Experimental: The material and the method are as follows: wild-type kinases such as TRKA, TRKB and TRKC, and mutant kinases such as TRKA-G595R, TRKA-G667C, TRKA-F589L, TRKC-G623R and TRKC-G696A, and are derived from Carna Biosciences 08-186, 08-187, 08-197; HTRF KinEASE TKkit (Cisbio 62TKO PEC); 384 well plates (Greiner corporation); ATP (Life technologies PV 3227), MgCl2 (sigma); PHERAstar FS Multifunctional microplate reader (BMG Co.); low speed centrifuge (StaiteXiangyi corporation); incubator (Binder company).
Preparing a compound working solution: the dispensed compounds were removed from the freezer prior to testing and diluted to 100× concentration with pure DMSO; then the compound was diluted to the desired concentration of 4× with deionized water;
Preparation of 1.33× enzyme buffer (enzyme buffer): 5× enzyme buffer (from HTRF kit) was diluted to 1.33× with deionized water and the corresponding ingredients were added at a final concentration of 1.33×: 1.33 mmol/L Dithiothreitol (DTT), 1.33 mmol/L MnCl2, 6.65 mmol/L MgCl2 and 39.9 nmol/L SEB;
Preparation of a kinase working solution: TRKA, TRKB and TRKC were diluted with 1.33× enzyme buffer to the required concentrations of 2× of 0.404 ng/μL, 0.304 ng/μL and 0.236 ng/μL, respectively;
Preparing a substrate working solution: a mixture of TK Substrate Blr diluted to the desired final concentration of 4× (from HTRF kit) and ATP (10 mM) with 1.33× enzyme buffer; the final ATP concentrations for TRKA, TRKB, and TRKC were: 3.727 μmol/L, 2.56 μmol/L and 2.526 μmol/L. The TK Substrate-biotin (from HTRF KinEASE TKkit) final concentrations were all: 0.2 μmol/L.
Preparing a detection working solution: 16.67 μmol/L of Streptavidin-XL665 (Streptavidin-XL 665) were diluted to the desired final concentration of 4× with HTRF test buffer and then mixed with an equal volume of Antibody-europium Cryptate (Antibody-Cryptate) (both from HTRF kits).
An enzyme reaction step: add 4 μL of kinase working solution to each well of a low volume 384 microwell plate along with 4 μL of 1.33× enzyme buffer as a Negative control (Negative); add 2 μl of compound working solution to the wells, while adding 2 μl of […] aqueous solution as a zero compound concentration control (i.e., Positive control, Positive); incubating at 25° C. for 5 min; add 2 μL of substrate working solution to the wells to start the enzymatic reaction, shake the reaction for 30 min at 37° C.
HTRF reagent detection step: adding […] to the hole to terminate the reaction; reacting for 1 h at 25° C.;
Reading of HTRF signal: the PHERAstar FS reading is adopted to detect signals, and the corresponding setting of the instrument is as follows:
For the raw data read out per well, the ratio=665 nm/620 nm;
Calculation of inhibition rate:
Calculation of IC50 values: with the logarithm of the compound concentration as abscissa and the inhibition as ordinate, a non-linear curve was fitted in GraphPad Prism 5: log (inhibitor) vs. response—Variable slope, and calculating the concentration of the compound to be detected, namely IC50, when the enzyme activity inhibition rate is 50%.

[9] = biological target: T6, TRKC (Homo sapiens, UniProt Q16288); experiment: In vitro biochemical HTRF KinEASE kinase inhibition, TRKC; details: wild-type kinase, final ATP 2.526 μmol/L
T6 construct: purchased Carna Biosciences 08-197
T6 sequence (Q16288 32-825 isoform Q16288-3 limits assumed): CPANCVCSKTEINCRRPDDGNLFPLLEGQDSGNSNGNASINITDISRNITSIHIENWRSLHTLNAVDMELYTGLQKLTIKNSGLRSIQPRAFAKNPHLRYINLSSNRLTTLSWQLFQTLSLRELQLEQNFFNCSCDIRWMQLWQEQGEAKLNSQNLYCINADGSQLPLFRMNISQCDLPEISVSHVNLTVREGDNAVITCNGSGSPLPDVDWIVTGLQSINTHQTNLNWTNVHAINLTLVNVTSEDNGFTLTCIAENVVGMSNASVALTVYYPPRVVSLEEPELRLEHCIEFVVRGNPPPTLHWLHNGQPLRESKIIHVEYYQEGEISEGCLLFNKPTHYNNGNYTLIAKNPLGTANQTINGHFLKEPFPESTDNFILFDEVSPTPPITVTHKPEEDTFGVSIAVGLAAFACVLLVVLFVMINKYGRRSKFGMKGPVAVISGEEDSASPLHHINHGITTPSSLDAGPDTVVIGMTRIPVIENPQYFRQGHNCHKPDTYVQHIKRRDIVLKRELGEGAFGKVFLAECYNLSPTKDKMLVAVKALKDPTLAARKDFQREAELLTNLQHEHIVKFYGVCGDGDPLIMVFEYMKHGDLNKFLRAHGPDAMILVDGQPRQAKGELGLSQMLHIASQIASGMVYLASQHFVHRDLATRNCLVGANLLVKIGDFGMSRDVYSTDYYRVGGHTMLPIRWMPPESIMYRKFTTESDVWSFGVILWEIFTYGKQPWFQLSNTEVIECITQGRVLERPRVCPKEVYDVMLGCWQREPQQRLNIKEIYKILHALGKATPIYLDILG

[10] = biological target: T7, TRKA-G595R (Homo sapiens, UniProt P04629, G595R); experiment: TRK kinase mutant inhibition (HTRF), TRKA-G595R; assay type: biochemical
T7 construct: purchased Carna Biosciences
T7 sequence (P04629 33-796 G595R): as the sequence (P04629 33-796 F589L) above, with L557F, G563R counted along it

[11] = biological target: T8, TRKA (Homo sapiens, UniProt P04629); experiment: In vitro biochemical HTRF KinEASE kinase inhibition, TRKA; details: wild-type kinase, final ATP 3.727 μmol/L; read-out: TRKA IC50
T8 construct: purchased Carna Biosciences 08-186
T8 sequence (P04629 33-796): as the sequence (P04629 33-796 F589L) above, with L557F counted along it

[12] = test system: Human NSCLC H2228; experiment: Antitumor activity on nude mouse xenograft tumor model (Test Example 5); assay type: in vivo, nude mice (BALB/c); details: for Partially regression: D14, tumors regressed/animals per group
Experimental: The efficacy of the compounds of the invention was assessed by a standard murine model of transplanted tumors. Human NSCLC H2228 was cultured, collected, and inoculated subcutaneously to 5-6 weeks old female nude mice (BALB/c, Shanghai Ling Chang Biotech, Ltd.). When the tumor volume reached 100-150 mm3, the animals were randomly divided into a solvent control group (70% PEG-400 in water) and a compound group (6 animals per group).
Animals were subsequently gavaged with the compounds of the examples (corresponding doses, dissolved in 70% PEG-400 in water), starting anywhere from 0 to 13 days after tumor cell inoculation, and were performed once or twice daily in the experiment.
The experimental index is to examine the influence of the compound of the embodiment on the growth of the tumor, and the specific index is T/C % or tumor inhibition rate TGI (%).
as §1, §2, §3
Tumor inhibition rate (TGI) (%) 100−T/C (%).
When tumor regression occurred, Tumor inhibition rate (TGI) (%) 100−(T−T0)/T0×100
as §4, §5
BID below indicates twice daily dosing and QD indicates once daily dosing.

[13] = 50 mg/kg BID D0-7, D14, tumors regressed/animals per group

## C[C@@H](Nc1ccn2ncc(-c3cnn(CCO)c3)c2n1)c1cc(F)ccc1OCC(F)F [Compound 5, (R)-2-(4-(5-((1-(2-(2,2-difluoroethoxy)-5-fluorophenyl)ethyl)amino)pyrazolo [1,5-a]pyrimidin-3-yl)-1H-pyrazol-1-yl) ethanol]
[1]; [13]
  Partially regression: 2/6
  complete regression: 3/6
[1]; 50 mg/kg BID gavage D0-7, dosing stopped from D8, read at D14, 50 mg/kg
  Tumor growth inhibition value D14: 155%
[1]; 50 mg/kg BID gavage D0-7, dosing stopped from D8, read at D14, listed as compound 5, 50 mg/kg
  Tumor growth inhibition value D14: 155%
[1]; 50 mg/kg BIDx8, D7, tumors regressed/animals per group
  tumor completely regressed D7: 4/6
[1]; 50 mg/kg BIDx8, read at D7
  tumor inhibition rate D7: 182%
[2]
  IC50: 1 nM
[3]
  IC50: 0.61 nM
[4]; in vivo, iv, 1 mg/kg
  Vd: 40 L/kg
  clearance: 83.3 mL/min/kg
[4]; intravenous injection 1 mg/kg
  Cmax: 104.1 ng/mL
  T1/2: 5.7 h
[4]; plasma, iv, 1 mg/kg
  AUC(0-t): 194 ng·h/mL
  MRT last: 3.89 h
[5]; in vivo, po, 5 mg/kg
  bioavailability: 49.3%
[5]; oral 5 mg/kg
  CL: 158 mL/min/kg
  Cmax: 217.7 ng/mL
  T1/2: 5.7 h
  Tmax: 0.25 h
  Vz: 79.26 L/kg
[5]; plasma, po, 5 mg/kg
  AUC(0-t): 479 ng·h/mL
  MRT last: 3.6 h
[6]
  IC50: 0.29 nM
[7]
  IC50: 0.95 nM
[8]
  IC50: 3.9 nM
[9]
  IC50: 11.1 nM
[10]
  IC50: 0.88 nM
[11]
  IC50: 3.6 nM

## C[C@@H](Nc1ccn2ncc(-c3cn[nH]c3)c2n1)c1cc(F)ccc1OCC(F)(F)F [Compound b8-30, (R)-N-(1-(5-fluoro-2-(2,2,2-trifluoroethoxy)phenyl)ethyl)-3-(1H-pyrazol-4-yl) pyrazolo [1,5-a] pyrimidin-5-amine]
[2]
  IC50: 1.3 nM
[3]
  IC50: 0.73 nM
[4]; plasma, iv, 1 mg/kg
  AUC(0-t): 518 ng·h/mL
  Cmax: 174 ng/mL
  MRT last: 4.2 h
  Vd: 12.7 L/kg
  clearance: 30.3 mL/min/kg
  half-life: 4.95 h
[5]; oral 5 mg/kg
  CL: 57.7 mL/min/kg
  Vz: 19.23 L/kg
[5]; plasma, po, 5 mg/kg
  AUC(0-t): 1460 ng·h/mL
  Cmax: 283 ng/mL
  MRT last: 4.27 h
  Tmax: 2 h
  bioavailability: 56.2%
  half-life: 4 h
[6]
  IC50: 0.44 nM
[7]
  IC50: 0.76 nM
[8]
  IC50: 3.2 nM
[12]; 25 mg/kg BID D0-13 (50 mg/kg from D8)
  Partially regression: 6/6
[12]; 25 mg/kg BID D0-13 (dose increased from D8 to 50 mg/kg), read at D14
  Tumor growth inhibition value/ D14: 127%
[12]; 25 mg/kg BID D0-13 (dose increased from D8 to 50 mg/kg), read at D14, listed as compound b8-30
  Tumor growth inhibition value/ D14: 127%
[12]; 25 mg/kg BID, read at D7
  tumor inhibition rate D7: 95%
[12]; 50 mg/kg QD D0-10 (100 mg/kg from D8)
  Partially regression: 3/6
[12]; 50 mg/kg QD D0-10 (dose raised from D8 to 100 mg/kg), read at D14
  Tumor growth inhibition value/ D14: 110%
[12]; 50 mg/kg QD D0-10 (dose raised from D8 to 100 mg/kg), read at D14, listed as compound b8-30
  Tumor growth inhibition value/ D14: 110%
[12]; 50 mg/kg QD, read at D7
  tumor suppression D7: 96%
[9]
  IC50: 3.9 nM
[10]
  IC50: 0.75 nM
[11]
  IC50: 2.8 nM
